# Source: patent US20110098177A1, “METHODS AND COMPOSITIONS OF PLANT MICRONUTRIENTS” (NOVUS INTERNATIONAL INC., priority 2006, published 2011)
# Marks after values point to notes of the source that are not given here.
# Tests used:
# Assay type in all cases: in vivo
# [1] = system: Florida-47 tomato; test: Marketable yield per plant, greenhouse Fall 2007, tomato; conditions: for Marketable yield per plant, Tomato: foliar application at 3 and 7 WAT, rates not separated; for Tomato yield compared with control (in words): foliar applications, P<0.05
# Description: The following experiments were performed in a green house during the fall of 2007 at GCREC, Balm, University of Florida. Fifteen products, at 3 different application rates were examined. The plot size was 2-gallon pots. Crop set-up, procedures and variables were as follows.
# Transplants of ‘Florida-47’ tomato and ‘Aristotle’ bell pepper plants in the 4-true leaf stage (about 6 inches tall) were planted in 2-gal pots on Aug. 27, 2007. Pots were filled with a commercially available planting medium. This medium was selected based on the mineral composition of the products to be applied without providing significant nutritional inputs to the crops. Irrigation was provided with drip lines delivering between 0.50 and 0.33 gal/day/pot for tomato and bell pepper, respectively, and the crops were irrigated three times per day. No foliar pesticides were necessary.
# There were four control treatments corresponding to each target micronutrient in which non-Fe, non-Mn, non-Zn or non-Cu pots received all other essential nutrients under non-limiting conditions.
# Treatments were applied at three rates (high, medium and low) obtained from the estimated concentration of Zn, Fe, Cu, and Mn foliarly-applied in tomato and bell pepper in field situations (Table 1). Products were weighed and dissolved in 200 ml of deionized water with a non-ionic surfactant and applied to the newly-matured open leaves of each crop at 3 and 7 weeks after transplant (WAT). Treated pots were isolated during application to avoid cross-contamination of other treatments.
# Medium nutrient concentration was determined 1 week before treatment. The mineral composition of the medium was 26.8 ppm NH4—N, 49 ppm NO3—N, 15.8 ppm P, 91.2 ppm K, 82.3 ppm Ca, 58.2 ppm Mg, 23.9 ppm Na, 125.6 ppm S, 1.33 ppm Fe, 0.39 ppm Mn, 0.35 ppm Zn, 0.05 pp, Cu, 0.04 ppm B, 0 ppm Mo, 0.73 ppm Al, and 12.1 ppm Si. The pH of the medium was 5.36 and the electric conductivity was 1.38 mS/cm. The foliar tissue analysis was performed at 6 WAT and the concentration of N, P, K, Mg, Ca, S, B, Zn, Mn, Fe, and Cu was determined by a commercial laboratory. Plant toxicity was determined at 4 WAT by using a 0-10 visual scale, where 0=no visible damage and 10=total plant death. Marketable fruit weight was collected 2 times in bell pepper and 4 times in tomato following USDA standards.
# Data were analyzed using a general linear model, and means were separated using orthogonal contrasts at the 5% significance level.
# [2] = system: Tygress tomato plants; test: Yields of tomato fruits, greenhouse (Examples 4-6); conditions: for Marketable yield: tomato fruits
# Procedure, shortened: (§1)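 Tygress tomato in 2-gallon pots of micronutrient-poor medium (negligible Fe, Zn, Mn, Cu) in greenhouse; foliar treatments at 5 WAT in 200 mL/plant water with non-ionic surfactant. Newest non-applied leaves analysed 2 weeks before and after treatment; marketable fruit harvested three times from 10 WAT, graded. RCBD, 6 replications, LSD 5%.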
# [3] = system: Tygress tomato plants; test: Foliar nutrient concentration 2 weeks after treatment, greenhouse tomato (Examples 4-6); conditions: for Foliar Mn concentration: tomato leaves 2 weeks after Mn treatment; for Foliar Zn concentration: tomato leaves 2 weeks after Zn treatment
# Procedure, shortened: as §1
# [4] = Mn 0.31 lb/acre, 2 weeks after Mn treatment
# [5] = Mn 0.62 lb/acre, 2 weeks after Mn treatment
# [6] = Mn 1.23 lb/acre, 2 weeks after Mn treatment
# [7] = Mn 2.46 lb/acre, 2 weeks after Mn treatment
# [8] = Zn 0.1 lb/acre, 2 weeks after Zn treatment
# [9] = Zn 0.2 lb/acre, 2 weeks after Zn treatment
# [10] = Zn 0.4 lb/acre, 2 weeks after Zn treatment
# [11] = Zn 0.8 lb/acre, 2 weeks after Zn treatment
compound,measurement,setting,value
"CSCCC(O)C(=O)[O-].CSCCC(O)C(=O)[O-].[Cu+2] (stereo not drawn) [BIOX-Cu, Cu-HMTBA]","Marketable yield per plant, Tomato",[1],5.5* lb/plant
same,Tomato yield compared with control (in words),[1],significantly increased
"CSCCC(O)C(=O)[O-].CSCCC(O)C(=O)[O-].[Mn+2] (stereo not drawn) [BIOX-M, Mn-HMTBA]",Marketable tomato yield compared with non-treated control (in words),"[2]; BIOX-M at 1.23 lb/acre or more, BIOX-EDM at 2.0 lb/acre, Mn-sulfate at 1.0 lb/acre",significantly higher than the non-treated control
same,Marketable yield,[2]; Mn 0.31 lb/acre,2.2 b lb/plant
same,Marketable yield,[2]; Mn 0.62 lb/acre,2.1 b lb/plant
same,Marketable yield,[2]; Mn 1.23 lb/acre,4.2 a lb/plant
same,Marketable yield,[2]; Mn 2.46 lb/acre,4.3 a lb/plant
same,"Marketable yield per plant, Tomato",[1],5.8* lb/plant
same,Tomato yield compared with control (in words),[1],significantly increased
same,B concentration in tomato leaves,[3]; [4],22 ppm
same,Ca concentration in tomato leaves,[3]; [4],0.6%
same,Cu concentration in tomato leaves,[3]; [4],5 ppm
same,Fe concentration in tomato leaves,[3]; [4],109 ppm
same,K concentration in tomato leaves,[3]; [4],3.1%
same,Mg concentration in tomato leaves,[3]; [4],0.3%
same,N concentration in tomato leaves,[3]; [4],3.5%
same,P concentration in tomato leaves,[3]; [4],0.4%
same,Zn concentration in tomato leaves,[3]; [4],31 ppm
same,Foliar Mn concentration,[3]; Mn 0.31 lb/acre,22.9 b ppm
same,B concentration in tomato leaves,[3]; [5],24 ppm
same,Ca concentration in tomato leaves,[3]; [5],0.6%
same,Cu concentration in tomato leaves,[3]; [5],5 ppm
same,Fe concentration in tomato leaves,[3]; [5],110 ppm
same,K concentration in tomato leaves,[3]; [5],3.2%
same,Mg concentration in tomato leaves,[3]; [5],0.3%
same,N concentration in tomato leaves,[3]; [5],3.5%
same,P concentration in tomato leaves,[3]; [5],0.5%
same,Zn concentration in tomato leaves,[3]; [5],32 ppm
same,Foliar Mn concentration,[3]; Mn 0.62 lb/acre,29.5 b ppm
same,B concentration in tomato leaves,[3]; [6],25 ppm
same,Ca concentration in tomato leaves,[3]; [6],0.6%
same,Cu concentration in tomato leaves,[3]; [6],5 ppm
same,Fe concentration in tomato leaves,[3]; [6],112 ppm
same,K concentration in tomato leaves,[3]; [6],3.1%
same,Mg concentration in tomato leaves,[3]; [6],0.3%
same,N concentration in tomato leaves,[3]; [6],3.5%
same,P concentration in tomato leaves,[3]; [6],0.5%
same,Zn concentration in tomato leaves,[3]; [6],28 ppm
same,Foliar Mn concentration,[3]; Mn 1.23 lb/acre,60.6 a ppm
same,B concentration in tomato leaves,[3]; [7],23 ppm
same,Ca concentration in tomato leaves,[3]; [7],0.6%
same,Cu concentration in tomato leaves,[3]; [7],5 ppm
same,Fe concentration in tomato leaves,[3]; [7],114 ppm
same,K concentration in tomato leaves,[3]; [7],3.2%
same,Mg concentration in tomato leaves,[3]; [7],0.3%
same,N concentration in tomato leaves,[3]; [7],3.6%
same,P concentration in tomato leaves,[3]; [7],0.4%
same,Zn concentration in tomato leaves,[3]; [7],33 ppm
same,Foliar Mn concentration,[3]; Mn 2.46 lb/acre,69.2 a ppm
"CSCCC(O)C(=O)[O-].CSCCC(O)C(=O)[O-].[Zn+2] (stereo not drawn) [BIOX-Z, Zn-HMTBA]",Marketable yields compared with the other Zn formulations (in words),[2]; BIOX-Z at a concentration higher than 0.1 lb/acre,statistically similar to the other Zn supplementation treatment formulations
same,Marketable yield,[2]; Zn 0.1 lb/acre,2.3 b lb/plant
same,Marketable yield,[2]; Zn 0.2 lb/acre,3.7 a lb/plant
same,Marketable yield,[2]; Zn 0.4 lb/acre,3.9 a lb/plant
same,Marketable yield,[2]; Zn 0.8 lb/acre,3.8 a lb/plant
same,"Marketable yield per plant, Tomato",[1],2.9* lb/plant
same,Tomato yield compared with control (in words),[1],significantly increased
same,Foliar Zn concentration compared with control (in words),"[3]; 0.8 lb/acre, 2 weeks after application",significantly higher than control
same,B concentration in tomato leaves,[3]; [8],25 ppm
same,Ca concentration in tomato leaves,[3]; [8],0.6%
same,Cu concentration in tomato leaves,[3]; [8],8 ppm
same,Fe concentration in tomato leaves,[3]; [8],98 ppm
same,K concentration in tomato leaves,[3]; [8],3.5%
same,Mg concentration in tomato leaves,[3]; [8],0.3%
same,Mn concentration in tomato leaves,[3]; [8],55 ppm
same,N concentration in tomato leaves,[3]; [8],3.6%
same,P concentration in tomato leaves,[3]; [8],0.5%
same,Foliar Zn concentration,[3]; Zn 0.1 lb/acre,86 bc ppm
same,B concentration in tomato leaves,[3]; [9],27 ppm
same,Ca concentration in tomato leaves,[3]; [9],0.6%
same,Cu concentration in tomato leaves,[3]; [9],6 ppm
same,Fe concentration in tomato leaves,[3]; [9],88 ppm
same,K concentration in tomato leaves,[3]; [9],3.7%
same,Mg concentration in tomato leaves,[3]; [9],0.3%
same,Mn concentration in tomato leaves,[3]; [9],56 ppm
same,N concentration in tomato leaves,[3]; [9],3.3%
same,P concentration in tomato leaves,[3]; [9],0.5%
same,Foliar Zn concentration,[3]; Zn 0.2 lb/acre,112 bc ppm
same,B concentration in tomato leaves,[3]; [10],28 ppm
same,Ca concentration in tomato leaves,[3]; [10],0.6%
same,Cu concentration in tomato leaves,[3]; [10],6 ppm
same,Fe concentration in tomato leaves,[3]; [10],88 ppm
same,K concentration in tomato leaves,[3]; [10],3.5%
same,Mg concentration in tomato leaves,[3]; [10],0.3%
same,Mn concentration in tomato leaves,[3]; [10],59 ppm
same,N concentration in tomato leaves,[3]; [10],3.4%
same,P concentration in tomato leaves,[3]; [10],0.5%
same,Foliar Zn concentration,[3]; Zn 0.4 lb/acre,128 bc ppm
same,B concentration in tomato leaves,[3]; [11],25 ppm
same,Ca concentration in tomato leaves,[3]; [11],0.5%
same,Cu concentration in tomato leaves,[3]; [11],4 ppm
same,Fe concentration in tomato leaves,[3]; [11],93 ppm
same,K concentration in tomato leaves,[3]; [11],3.4%
same,Mg concentration in tomato leaves,[3]; [11],0.3%
same,Mn concentration in tomato leaves,[3]; [11],54 ppm
same,N concentration in tomato leaves,[3]; [11],3.5%
same,P concentration in tomato leaves,[3]; [11],0.5%
same,Foliar Zn concentration,[3]; Zn 0.8 lb/acre,500 ab ppm
EDTA chelated zinc [BIOX-EDZ],Marketable yield,[2]; Zn 0.4 lb/acre,3.5 a lb/plant
same,B concentration in tomato leaves,[3]; [10],21 ppm
same,Ca concentration in tomato leaves,[3]; [10],0.6%
same,Cu concentration in tomato leaves,[3]; [10],7 ppm
same,Fe concentration in tomato leaves,[3]; [10],95 ppm
same,K concentration in tomato leaves,[3]; [10],3.6%
same,Mg concentration in tomato leaves,[3]; [10],0.3%
same,Mn concentration in tomato leaves,[3]; [10],54 ppm
same,N concentration in tomato leaves,[3]; [10],3.6%
same,P concentration in tomato leaves,[3]; [10],0.5%
same,Foliar Zn concentration,[3]; Zn 0.4 lb/acre,214.bc ppm
